# Measurements: patent publication US8017629B2, “Compounds and uses thereof in modulating amyloid β” (Neurogenetic Pharmaceuticals, Inc., priority 2003, dated 2011)
# Tested on: Aβ42 levels in the extracellular medium
# Experiment: FRET (HTRF) assay, Aβ42 level of the extracellular medium of SH-SY5Y-APP cells
# Assay type: cell-based
# Conditions: Homo sapiens, concentration at which reduction of Aβ42 level was half of the maximum reduction, read-out: Ab42 Potency
# Experimental: Compounds were evaluated for activity in modulating Aβ42 and Aβ40 levels in the extracellular medium using a homogeneous time-resolved fluorescence (HTRF) assay as follows.
# For the HTRF assay, either 5 or 10 μl of supernatant from treated cells was added to 10 or 15 μl of labeled antibody pairs, for a total volume of 20 μl, and incubated for 20-24 hours at 4° C. The labeled antibody pairs were either 8000 pg B436-XL665 and 400 pg B113 Europium, for assessing Aβ40 levels, or 8000 pg B436-XL665 and 400 pg A387 Europium, for assessing Aβ42 levels, diluted in 50 mM NaPO4, 0.2% BSA, 0.5M KF, pH 7. The fluorescence was read on a BMG Rubystar at 620 nm and 665 nm.
row,SMILES,EC50
1,CCOc1cc(C)c(Nc2nc(-c3ccc(-n4ccnc4)nc3)cs2)cc1C [Compound 318],< 200 nM
2,c1cc2c(cc1Nc1nc(-c3ccc4c(c3)OCCO4)cs1)OCO2 [Compound 103],5100 to 10000 nM
3,NC(=O)c1ncn(-c2ccc(-c3csc(Nc4ccc(N5CCOCC5)c(Cl)c4)n3)cc2)n1 [Compound 233],1100 to 5000 nM
4,CCCN(c1ccc2c(c1)OCO2)c1nc(-c2ccc(N3CCN(C)CC3)cc2)cs1 [Compound 163],5100 to 10000 nM
5,Cc1ccc(N2CCN(C)CC2)cc1Nc1nc(-c2ccc(-n3ccnc3)cc2)cs1 [Compound 255],200 to 1000 nM
6,CN1CCN(c2ccc(-c3csc(Nc4ccc(I)cc4)n3)cc2)CC1 [Compound 126],1100 to 5000 nM
7,Clc1cccc(Nc2nc(-c3ccc(-n4ccnc4)cc3)cs2)c1 [Compound 152],10100 to 30000 nM
8,Cc1cn(-c2ccc(-c3csc(Nc4cc(N(C)CC5CC5)ccc4C)n3)cc2)cn1 [Compound 305],< 200 nM
9,Brc1cccc(Nc2nc(-c3ccc(-n4ccnc4)cc3)cs2)c1 [Compound 212],1100 to 5000 nM
10,Oc1ccc(Nc2nc(-c3ccc4ccccc4c3)cs2)cc1 [Compound 124],5100 to 10000 nM
11,CCN(CCOC)c1ccc(Nc2nc(-c3ccc(-n4cnc(C)c4)nc3)cs2)c(C)c1 [Compound 261],200 to 1000 nM
12,CCN(CC)c1ccc(Nc2nc(-c3ccc(-n4cnc(Br)c4)cc3)cs2)c(C)c1 [Compound 199],200 to 1000 nM
13,CSc1cccc(Nc2nc(-c3ccc(N4CCN(C)CC4)cc3)cs2)c1 [Compound 145],1100 to 5000 nM
14,Cc1cn(-c2ccc(-c3csc(Nc4cc(Cl)c(Cl)cc4Cl)n3)cc2)cn1 [Compound 237],200 to 1000 nM
15,COc1ccc(-c2csc(Nc3ccc(N(C)C)cc3)n2)c(OC)c1 [Compound 114],200 to 1000 nM
16,CCN(CCOC)c1ccc(Nc2nc(-c3ccc(-n4cnc(C)c4)cc3)cs2)c(C)c1 [Compound 231],200 to 1000 nM
17,CNCCN(C)c1ccc(Nc2nc(-c3ccc(-n4ccnc4)cc3)cs2)c(C(F)(F)F)c1 [Compound 224],1100 to 5000 nM
18,COc1cc(C)c(Nc2nc(-c3ccc(-n4cc(C)cn4)cc3)cs2)cc1C(C)C [Compound 308],200 to 1000 nM
19,CCN(CC)c1ccc(Nc2nc(-c3ccc(-n4cnc(C)c4)nc3)cs2)c(C)c1 [Compound 247],< 200 nM
20,Cc1ccc(Nc2nc(-c3ccc(-n4ccnc4)cc3)co2)c(C)c1 [Compound 345],5100 to 10000 nM
21,Cc1ccc(C)c(Nc2nc(-c3ccc(-n4ccnc4)cc3)cs2)c1 [Compound 302],200 to 1000 nM
22,Cc1cn(-c2ccc(-c3csc(Nc4cc(N5CCCCC5)ccc4C)n3)cn2)cn1 [Compound 283],< 200 nM
23,CN1CCN(C(=O)c2ccc(Nc3nc(-c4ccc(N5CCN(C)CC5)cc4)cs3)cc2)CC1 [Compound 191],1100 to 5000 nM
24,CCN(CC)c1ccc(Nc2nc(-c3ccc(-n4ccnc4)cc3)cs2)c(C)c1 [Compound 133],200 to 1000 nM
25,COc1cccc(Nc2nc(-c3ccc(N=Nc4ccccc4)cc3)cs2)c1 [Compound 131],10100 to 30000 nM
26,COc1cc(Nc2nc(-c3ccc(OC(F)F)cc3)cs2)cc(OC)c1OC [Compound 109],10100 to 30000 nM
27,CCN(c1ccc(N2CCOCC2)cc1)c1nc(-c2ccc(-n3ccnc3)cc2)cs1 [Compound 180],1100 to 5000 nM

row,SMILES,EC50
1,CCCN(c1nc(-c2ccc(-n3ccnc3)cc2)cs1)c1ccc(N(CC)CC)cc1C [Compound 175],10100 to 30000 nM
2,Clc1cccc(Nc2nc(-c3ccc4c(c3)OCO4)cs2)c1 [Compound 154],10100 to 30000 nM
3,COc1cc(C)c(Nc2nc(-c3ccc(-n4cnc(C)c4)c(F)c3)cs2)cc1C(C)C [Compound 310],< 200 nM
4,Cc1cc(C)c(Nc2nc(-c3ccc(-n4cnc(Br)c4)cc3)cs2)cc1C [Compound 236],200 to 1000 nM
5,COc1cc(Nc2nc(-c3ccc(F)cc3)cs2)cc(OC)c1OC [Compound 108],5100 to 10000 nM
6,CCN(CC)c1ccc(C)c(Nc2nc(-c3ccc(-n4cnc(C)c4)c(F)c3)cs2)c1 [Compound 309],< 200 nM
7,FC(F)(F)c1cc(N2CC=CC2)ccc1Nc1nc(-c2ccc(-n3ccnc3)cc2)cs1 [Compound 221],1100 to 5000 nM
8,Cc1cn(-c2ccc(-c3csc(Nc4cc(-n5cccc5)ccc4C)n3)cn2)cn1 [Compound 277],< 200 nM
9,COc1ccc(-c2csc(Nc3cccc4[nH]ncc34)n2)c(OC)c1 [Compound 171],1100 to 5000 nM
10,CSc1cccc(Nc2nc(-c3ccc4c(c3)OCO4)cs2)c1 [Compound 183],10100 to 30000 nM
11,CN1CCN(c2ccc(-c3csc(Nc4ccc(Cl)c(Cl)c4)n3)cn2)CC1 [Compound 330],1100 to 5000 nM
12,CC(C)N1CCN(C(=O)c2ccc(Nc3nc(-c4ccc(N5CCN(C)CC5)cc4)cs3)cc2)CC1 [Compound 192],5100 to 10000 nM
13,COc1ccc(C)c(Nc2nc(-c3ccc(-n4ccnc4)cc3)cs2)c1 [Compound 351],< 200 nM
14,COc1cccc(CNc2nc(-c3ccc(N4CCN(C)CC4)cc3)cs2)c1 [Compound 135],1100 to 5000 nM
15,CCN(CC)c1ccc(C)c(Nc2nc(-c3ccc(-n4ccnc4)cc3)cs2)c1 [Compound 265],< 200 nM
16,CCN(CC)c1ccc(N(CC)c2nc(-c3ccc(-n4cnc(C)c4)cc3)cs2)c(C)c1 [Compound 273],200 to 1000 nM
17,COc1ccc(-c2csc(Nc3ccc(I)cc3)n2)c(OC)c1 [Compound 125],1100 to 5000 nM
18,Cc1ccc(C)c(Nc2nc(-c3ccc(-n4cnc(C)c4)cc3)cs2)c1 [Compound 303],< 200 nM
19,COc1ccc(Nc2nc(-c3ccc(N4CCCC4)cc3)cs2)cc1OC [Compound 113],5100 to 10000 nM
20,c1nc2cc(Nc3nc(-c4ccc5c(c4)OCO5)cs3)ccc2[nH]1 [Compound 161],5100 to 10000 nM
21,COc1ccccc1-c1csc(Nc2ccc(Br)cc2)n1 [Compound 130],10100 to 30000 nM
22,CN1CCN(c2ccc(-c3csc(Nc4ccc5c(cnn5C)c4)n3)cc2)CC1 [Compound 140],5100 to 10000 nM
23,CCN(CC)c1ccc(C)c(Nc2nc(-c3ccc(-n4cc(C)cn4)cc3)cs2)c1 [Compound 307],1100 to 5000 nM
24,Cc1cn(-c2ccc(-c3csc(Nc4cc(C)c(OCC5CC5)cc4C)n3)cc2)cn1 [Compound 280],< 200 nM
25,CCN(CC)c1ccc(Nc2nc(-c3ccc(-c4c[nH]c(C)n4)cc3)cs2)c(C)c1 [Compound 248],5100 to 10000 nM
26,CCOc1cc(C)c(Nc2nc(-c3ccc(N4CCN(C)CC4)cc3)cs2)cc1C [Compound 322],1100 to 5000 nM
27,CCN(CC)c1cc(Nc2nc(-c3cnc(-n4cnc(C)c4)nc3)cs2)c(C)cc1C [Compound 343],< 200 nM

row,SMILES,EC50
1,c1cc(Nc2nc(-c3ccc4c(c3)OCO4)cs2)c2cn[nH]c2c1 [Compound 172],1100 to 5000 nM
2,c1cn(-c2ccc(-c3csc(Nc4ccc5[nH]ccc5c4)n3)cc2)cn1 [Compound 143],1100 to 5000 nM
3,COc1ccc(C)c(Nc2nc(-c3ccc(-n4cnc(C)c4)nc3)cs2)c1 [Compound 197],< 200 nM
4,CSc1cccc(Nc2nc(-c3ccc(-c4ccccc4)cc3)cs2)c1 [Compound 168],1100 to 5000 nM
5,CCCN(CC)c1ccc(C)c(Nc2nc(-c3ccc(-n4cnc(C)c4)cc3)cs2)c1 [Compound 337],< 200 nM
6,CCN(CC)c1ccc(Nc2nc(-c3ccc(-n4ccnc4)cc3)cs2)c(C(F)(F)F)c1 [Compound 218],1100 to 5000 nM
7,Cc1cn(-c2ccc(-c3csc(Nc4cc(-n5cccc5)ccc4C)n3)cc2)cn1 [Compound 293],200 to 1000 nM
8,CN(C)CCNc1ccc(Nc2nc(-c3ccc(-n4ccnc4)cc3)cs2)c(C(F)(F)F)c1 [Compound 217],1100 to 5000 nM
9,CCN(CC)c1cc(Nc2nc(-c3ccc(N4CCN(C)CC4)nc3)cs2)c(C)cc1C [Compound 332],1100 to 5000 nM
10,CCOc1cc(C)c(Nc2nc(-c3ccc(-n4cnc(C)c4)nc3)cs2)cc1C [Compound 287],< 200 nM
11,CCN(C)c1cc(Nc2nc(-c3ccc(-n4cnc(C)c4)nc3)cs2)c(C)cc1C [Compound 336],< 200 nM
12,Cc1cn(-c2ccc(-c3csc(Nc4cc(C(C)C)ccc4C)n3)cc2)cn1 [Compound 326],< 200 nM
13,COc1ccc(-c2csc(Nc3ccc4c(c3)OCCO4)n2)c(OC)c1 [Compound 182],10100 to 30000 nM
14,CCN1CCN(c2ccc(-c3csc(Nc4ccc5c(c4)OCO5)n3)cc2)CC1 [Compound 162],1100 to 5000 nM
15,Cc1cn(-c2ccc(-c3csc(Nc4cc(N(C)CC5CC5)ccc4C)n3)cn2)cn1 [Compound 306],< 200 nM
16,CCc1cccc(Nc2nc(-c3ccc(N4CCN(C)CC4)cc3)cs2)c1 [Compound 234],1100 to 5000 nM
17,CCN(CC)c1cc(C)c(Nc2nc(-c3ccc(-n4cnc(C)c4)nc3)cs2)cc1C [Compound 286],< 200 nM
18,CCN(C)c1cc(Nc2nc(-c3ccc(-n4ccnc4)cc3)cs2)c(C)cc1C [Compound 334],< 200 nM
19,CCCN(C)c1ccc(C)c(Nc2nc(-c3ccc(-n4cnc(C)c4)cc3)cs2)c1 [Compound 348],< 200 nM
20,CCN(CC)c1ccc(Nc2nc(-c3ccc(-n4cc(C(C)O)nn4)cc3)cs2)c(C)c1 (centres unmarked) [Compound 275],1100 to 5000 nM
21,CCN(CC)c1cc(Nc2nc(-c3ccc(-n4ccnc4)cc3)cs2)c(C)cc1C [Compound 291],< 200 nM
22,Cc1cn(-c2ccc(-c3csc(Nc4cc(CO)ccc4C)n3)cc2)cn1 [Compound 299],200 to 1000 nM
23,Cc1ccc(Nc2nc(-c3ccc(C#N)cc3)cs2)cc1Cl [Compound 193],10100 to 30000 nM
24,COc1cc(C)c(Nc2nc(-c3ccc(-n4cnc(C)c4)cc3)cs2)cc1C(C)C [Compound 295],< 200 nM
25,COc1cc(C)c(Nc2nc(-c3ccc(-n4cnc(C)c4)cc3)c(C)s2)cc1C(C)C [Compound 297],< 200 nM
26,CCN(CC)c1ccc(Nc2nc(-c3ccc(-n4ccnc4C)cc3)cs2)c(C)c1 [Compound 189],1100 to 5000 nM
